Measurements from patent US20230192774A1, “IMM[…] POLYOMAVIRUSES” (The Council of the Queensland Institute of Medical Research, priority 2019, published 2023).
“Also recorded” adds a separate entry of the source.

Experiments:
Format in all cases: cell-based, human
CD4^+ T cells = assay: intracellular cytokine assay of T cells expanded with synthetic JCV peptides; details: PBMC from healthy volunteers cultured 12-14 days with cytokines
Description: JCV-specific T cells were expanded in vitro following stimulation with pooled JCV epitopes. Specifically, PBMC from healthy volunteers were stimulated with synthetic JCV peptides (Table 1) for 1 hour and then cultured for 12-14 days in the presence of different cytokine combinations, including IL-2 (10 ng/ml), IL7 (10 ng/ml), IL12 (10 ng/ml) and/or IL15 (10 ng/ml). The JCV specificity of the expanded T cells was assessed using standard intracellular cytokine assays (Table 6).

HLA class II = HLA class II restriction analysis with peptide-loaded LCLs, IFN-γ ICS assay; details: LCLs matching one single HLA allele of the donor loaded with peptide for 1 hour
Description: Specifically, the HLA class II-restriction of VDLHAFLSQAVFSNR (SEQ ID NO: 2) (LT29), FLSQAVFSNRTVASF (SEQ ID NO: 3) (LT30) and TVASFAVYTTKEKAQ (SEQ ID NO: 4) (LT32) peptides as HLA DRB1*10:01 is shown. Briefly, a panel of lymphoblastoid cells (LCLs) matching one single allele of the HLA type of the donor were chosen and loaded with respective peptide for 1 hour. The loaded LCLs were then used as stimulator cells in an IFN-γ ICS assay. The peptide, when presented by the MHC, elicits an IFN-γ response in JCV-specific T cells. […]

Peptide-specific T cells = assay: T cell cross-reactivity between JCV and BKV epitopes (intracellular cytokine assay); details: for BKV cross-reactivity: CD4^+ T cell responses to JCV peptides; for recognition of BKV and JCV peptide by T cells expanded with the epitope: expanded with one epitope, re-stimulated with JCV or BKV epitope, IFN-γ
Excerpt: ICS FACS plots show the expression of IFN-γ in T cells expanded with either BKV epitope (SSGTQQWRGLARYFK (SEQ ID NO: 33)) or JCV epitope (RSGSQQWRGLSRYFK (SEQ ID NO: 12)). These primed T cells were stimulated using both BKV and JCV peptide showing that the T cells expanded with either of these epitopes recognize both BKV and JCV peptide sequences.
Peptide-specific T cells were expanded in vitro following stimulation with JCV epitope or BKV epitope and then re-stimulated with the corresponding […] peptide epitope (see Table 2) so as to observe any cross-reactive response between JCV and BKV epitopes. Specifically, PBMC from healthy volunteers were cultured with synthetic JCV peptide epitope RSGSQQWRGLSRYFK (SEQ ID NO: 12) or with synthetic BKV peptide epitope SSGTQQWRGLARYFK (SEQ ID NO: 33). Following initial expansion, each sample was re-stimulated (re-called) with either JCV epitope RSGSQQWRGLSRYFK (SEQ ID NO: 12) or BKV epitope SSGTQQWRGLARYFK (SEQ ID NO: 33) (wherein samples re-called with the same epitope act as internal controls). The reactivity of the expanded T cells was assessed using standard intracellular cytokine assays (see FIG. 4).

JCV-specific T cells = assay: two-dimensional peptide matrix epitope mapping, IFN-γ ICS assay; details: FACS, individual LTA overlapping peptides
Excerpt: JCV-specific T cells expanded in vitro using the OPPs were further characterized by identifying specific T cell determinants. […] The response using the subpools were overlayed on a two dimensional matrix, thus showing the common individual peptides among the pools. […] Figure discloses SEQ ID NOS 2-4, respectively, in order of appearance.
In order to precisely map the HLA class I and class II-restricted T cell responses, individual overlapping peptides (15 aa long overlapping by 10 aa) were sourced for LTA, STA and VP1 proteins for T cell epitope mapping. A two-dimensional peptide matrix was used to distribute all individual peptides into small overlapping peptide pools. For example, in the case of Large T Antigen, the matrix is arranged such that each peptide of the pools (LTA1 to LTA24) occurs once on the ordinate. The T cell response for each pool was measured by intracellular cytokine-staining (ICS) IFN-γ assay (see FIG. 2A) and the data overlayed on a two dimensional matrix as follows.
Thus, the common individual peptides among pools that elicited a T cell response were identified, i.e., peptide 32 (P32) at the intersection of row LTA4 and column LTA16 and peptides P29 and P30 at the intersection of row LTA3 with columns LTA23 and LTA24.

Sequence | %IFNγ^+CD4^+ with 0.1 μg/ml peptide (CD4^+ T cells) [%] | %IFNγ^+CD4^+ with 1 μg/ml peptide (CD4^+ T cells) [%] | HLA Restriction (HLA class II) | BKV cross-reactivity (Peptide-specific T cells) | recognition of BKV and JCV peptide by T cells expanded with the epitope (Peptide-specific T cells) | T cell response for individual peptide in the IFN-γ ICS assay (JCV-specific T cells)
NFLYKKMEQGVKVAH (listed as Betapolyomavirus secuhominis) | 0.2 | 1.2 | DRB1*15:01 | – | – | –
IDQFMVVFEDVKGTG (listed as Betapolyomavirus secuhominis) | 18.5 | 24.8 | DRB1*14:04/; also recorded: DQB1*05:03 | Yes | – | –
KMKRMNFLYKKMEQG (listed as Betapolyomavirus secuhominis) | 0.4 | 1.4 | DRB1*15:01 | Yes | – | –
ERLNFELGVGIDQFM (listed as Betapolyomavirus secuhominis) | 2.2 | 6.32 | DRB1*15:01 | Yes | – | –
SSGTQQWRGLARYFK | – | – | – | – | recognize both the BKV and JCV peptide sequence | –
EQYMAGVAWIHCLLP (listed as Betapolyomavirus secuhominis) | 2.5 | 2.9 | DRB1*04:01 &; also recorded: DRB1*03:01 | Yes | – | –
TVASFAVYTTKEKAQ (listed as Betapolyomavirus secuhominis) | 6.4 | 7.34 | DRB1*10:01 | Yes | – | elicit a JCV-specific T cell response
DPDMMRYVDKYGQLQ | 2.1 | 4.5 | DRB1*04:02 | Yes | – | –
SICQQAVDTVAAKQR (listed as Betapolyomavirus secuhominis) | 0.24 | 4.38 | DRB1*04:01 &; also recorded: DQB1*02:02 | Yes | – | –
LRSSPLVWIDCYCFD (listed as Betapolyomavirus secuhominis) | 0.4 | 1.81 | DRB1*15:01 | – | – | –
RSGSQQWRGLSRYFK | 7.8 | 8.4 | DRB1*11:01 | Yes | recognize both the BKV and JCV peptide sequence | –
GGHNILFFLTPHRHR (listed as Betapolyomavirus secuhominis) | 1.28 | 6.15 | DRB1*16:O1 | Yes | – | –
MDKVLNREESMELMD (listed as Betapolyomavirus secuhominis) [identical BKV homologue] | 1.65 | 5.26 | DRB1*01:01 | Yes | – | –
SITEVECFLTPEMGD (listed as Betapolyomavirus secuhominis) | 2.8 | 2.71 | DRB1*01:01 &; also recorded: DQB1*05:01 | Yes | – | –
TCGNILMWEAVTLKT (listed as Betapolyomavirus secuhominis) | 2.65 | 4.83 | DRB1*15:01 | Yes | – | –
FLSQAVFSNRTVASF (listed as Betapolyomavirus secuhominis) | 34.1 | 38.39 | DRB1*10:01 | Yes | – | elicit a JCV-specific T cell response
RYWLFKGPIDSGKTT [identical BKV homologue] | 2.35 | 4.05 | DRB1*15:01 | Yes | – | –
MTREEMLVERFNFLL (listed as Betapolyomavirus secuhominis) | 2 | 3.8 | DRB1*04:01 &; also recorded: DRB1*03:01 | Yes | – | –
SKNQKSICQQAVDTV (listed as Betapolyomavirus secuhominis) [identical BKV homologue] | 0.41 | 2.31 | DRB1*04:01 &; also recorded: DQB1*02:02 | Yes | – | –
VDLHAFLSQAVFSNR (listed as Betapolyomavirus secuhominis) | 20.26 | 25.49 | DRB1*10:01 | Yes | – | elicit a JCV-specific T cell response
RNRKFLRSSPLVWID (listed as Betapolyomavirus secuhominis) | 0.6 | 3.03 | DRB1*15:01 | – | – | –
RKAYLKKCKELHPDK (listed as Betapolyomavirus secuhominis) | 9.2 | 10.4 | DRB1*13:01 | Yes | – | –
